Structures can show the parent of a compound that is named as a salt. Where two headings read alike, the source gives them in different places.
Columns and labels:
[1] = target: T1, SARS-CoV-2 PLpro (nsp3 1564–1878) (Severe acute respiratory syndrome coronavirus 2, UniProt P0DTD1); assay: biochemical; parameters: FRET-quenched peptide (Pro3) cleavage by PLpro, 10 min pre-incubation, slope over 20 min, normalised to no-compound control; settings: low concentration screen, read-out: % of control remaining
[2] = target: T1, SARS-CoV-2 PLpro (nsp3 1564–1878); assay: biochemical; parameters: FRET-quenched peptide (Pro3) cleavage by PLpro, 10 min pre-incubation, slope over 20 min, normalised to no-compound control; settings: high concentration screen, read-out: % of control remaining

SMILES: CC[C@]12CCCN3CCc4c(n(c5ccccc45)[C@@](O)(C(=O)OC)C1)[C@@H]32 [Vincamine]
- remaining activity at 1.25 µM ([1]; Well no.=3475): 106%
- remaining activity at 3.75 µM ([2]; Well no.=3475): 102%

SMILES: CNC1(C)C2CCC(C2)C1(C)C (centres unmarked) [Mecamylamine hydrochloride]
- remaining activity at 1.25 µM ([1]; Well no.=987): 98.1%
- remaining activity at 3.75 µM ([2]; Well no.=987): 99.8%

SMILES: COc1cccc(-c2ccc(NC(=O)C3=C(C(=O)O)CCC3)c(F)c2)c1 [Vidofludimus]
- remaining activity at 1.25 µM ([1]; Well no.=8524): 99.5%
- remaining activity at 3.75 µM ([2]; Well no.=8524): 96.6%

SMILES: CCCC(=O)O [Sodium butyrate]
- remaining activity at 1.25 µM ([1]; Well no.=4674): 94.4%
- remaining activity at 3.75 µM ([2]; Well no.=4674): 90%

SMILES: Nc1ncnc2c1ncn2C1CCCO1 (centres unmarked) [SQ 22536]
- remaining activity at 1.25 µM ([1]; Well no.=1517): 98.3%
- remaining activity at 3.75 µM ([2]; Well no.=1517): 99.9%

SMILES: CC1=C(C(=O)O)N2C(=O)[C@@H](NC(=O)[C@H](N)C3=CCC=CC3)[C@H]2SC1 [Cephradine]
- remaining activity at 1.25 µM ([1]; Well no.=236): 98.9%
- remaining activity at 3.75 µM ([2]; Well no.=236): 100%

SMILES: CCCc1ccc(OCC(=O)N(Cc2nc(-c3cccnc3)no2)C(C)C)cc1 [PI-1840]
- remaining activity at 1.25 µM ([1]; Well no.=8718): 94.8%
- remaining activity at 3.75 µM ([2]; Well no.=8718): 98.4%

SMILES: Cc1onc(-c2c(Cl)cccc2Cl)c1C(=O)N[C@@H]1C(=O)N2[C@@H]1SC(C)(C)[C@@H]2C(=O)O [Dicloxacillin Sodium]
- remaining activity at 1.25 µM ([1]; Well no.=5360): 90.3%
- remaining activity at 3.75 µM ([2]; Well no.=5360): 89.6%

SMILES: CN1C2=CC(=O)/C(=N\NC(N)=O)C=C2CC1S(=O)(=O)O (centres unmarked) [Carbazochrome sodium sulfonate]
- remaining activity at 1.25 µM ([1]; Well no.=5261): 96.5%
- remaining activity at 3.75 µM ([2]; Well no.=5261): 95%

SMILES: O=C(O[C@H]1C[N+]2(CCCOc3ccccc3)CCC1CC2)C(O)(c1cccs1)c1cccs1 [Aclidinium (Bromide)]
- remaining activity at 1.25 µM ([1]; Well no.=7336): 98%
- remaining activity at 3.75 µM ([2]; Well no.=7336): 101%

SMILES: Nc1nc(CC(=O)Nc2ccc(CCNC[C@H](O)c3ccccc3)cc2)cs1 [Mirabegron (YM178)]
- remaining activity at 1.25 µM ([1]; Well no.=4652): 99.3%
- remaining activity at 3.75 µM ([2]; Well no.=4652): 97.1%

SMILES: O=C(O)c1ccc(CO)o1 [5-Hydroxymethyl-2-furancarboxylic acid]
- remaining activity at 1.25 µM ([1]; Well no.=6689): 97.9%
- remaining activity at 3.75 µM ([2]; Well no.=6689): 98.1%

SMILES: N=C(N)NC(=O)c1nc(Cl)c(N)nc1N [Amiloride]
- remaining activity at 1.25 µM ([1]; Well no.=1709): 102%
- remaining activity at 3.75 µM ([2]; Well no.=1709): 99%

SMILES: CCCN1CCC[C@@H]2Cc3n[nH]cc3C[C@H]21 (racemic)
- remaining activity at 1.25 µM ([1]; Well no.=1461): 91%
- remaining activity at 3.75 µM ([2]; Well no.=1461): 88.7%

SMILES: COc1cn(-c2ccc(-n3cccn3)cc2F)nc(-c2ccnn2-c2ccccc2)c1=O [TAK-063]
- remaining activity at 1.25 µM ([1]; Well no.=8728): 98.2%
- remaining activity at 3.75 µM ([2]; Well no.=8728): 94.2%

SMILES: CC(C)(O)CNc1nc(Nc2ccnc(C(F)(F)F)c2)nc(-c2cccc(C(F)(F)F)n2)n1 [Enasidenib (AG-221)]
- remaining activity at 1.25 µM ([1]; Well no.=8582): 101%
- remaining activity at 3.75 µM ([2]; Well no.=8582): 101%

SMILES: N[C@H](Cc1c[nH]c2ccccc12)C(=O)N/N=C/c1ccc2nccnc2c1 [Rhosin (hydrochloride)]
- remaining activity at 1.25 µM ([1]; Well no.=7170): 91.4%
- remaining activity at 3.75 µM ([2]; Well no.=7170): 93%

SMILES: CCCCCCCC/C=C\CCCCCCCC(=O)O [9(Z)-Octadecenoic acid]
- remaining activity at 1.25 µM ([1]; Well no.=4590): 101%
- remaining activity at 3.75 µM ([2]; Well no.=4590): 98.1%

SMILES: N[C@@H]1CN(c2c(F)cc3c(=O)c(C(=O)O)cn([C@@H]4C[C@@H]4F)c3c2Cl)CC12CC2 [Sitafloxacin hydrate]
- remaining activity at 1.25 µM ([1]; Well no.=4770): 97.9%
- remaining activity at 3.75 µM ([2]; Well no.=4770): 93.3%

SMILES: CC(C)c1c(C(=O)Nc2ccccc2)c(-c2ccccc2)c(-c2ccc(F)cc2)n1CC[C@@H](O)C[C@@H](O)CC(=O)O [Atorvastatin Calcium]
- remaining activity at 1.25 µM ([1]; Well no.=8096): 95.7%
- remaining activity at 3.75 µM ([2]; Well no.=8096): 98.2%

SMILES: Cc1cc(C)c(S(=O)(=O)Nc2cccc(C(F)(F)F)c2)c(C)c1 [m -3M3FBS]
- remaining activity at 1.25 µM ([1]; Well no.=5841): 99.6%
- remaining activity at 3.75 µM ([2]; Well no.=5841): 98.2%

SMILES: C[C@]12C=CC(=O)C=C1CC[C@H]1[C@@H]3C[C@@H](O)[C@](O)(C(=O)CO)[C@@]3(C)C[C@H](O)[C@@]12F [Triamcinolone]
- remaining activity at 1.25 µM ([1]; Well no.=1435): 98.1%
- remaining activity at 1.25 µM ([1]; Well no.=2004): 108%
- remaining activity at 1.25 µM ([1]; Well no.=6419): 94.8%
- remaining activity at 3.75 µM ([2]; Well no.=1435): 100%
- remaining activity at 3.75 µM ([2]; Well no.=2004): 106%
- remaining activity at 3.75 µM ([2]; Well no.=6419): 96.2%

SMILES: NS(=O)(=O)Cc1noc2ccccc12 [Zonisamide sodium]
- remaining activity at 1.25 µM ([1]; Well no.=1390): 98.4%
- remaining activity at 3.75 µM ([2]; Well no.=1390): 100%

SMILES: NC(=O)[C@@H]1CCCC[C@@H]1C(=O)Nc1ccc(Cl)c(Cl)c1 [Lu AF21934]
- remaining activity at 1.25 µM ([1]; Well no.=8529): 104%
- remaining activity at 3.75 µM ([2]; Well no.=8529): 104%

SMILES: CN1C[C@@H](NS(=O)(=O)N(C)C)C[C@@H]2c3cccc4c3c(cn4C)C[C@H]21 [Mesulergine hydrochloride]
- remaining activity at 1.25 µM ([1]; Well no.=897): 106%
- remaining activity at 3.75 µM ([2]; Well no.=897): 105%

SMILES: O=C1c2c(O)cc(O)cc2O[C@H](c2ccc(O)c(O)c2)[C@H]1O [(+)-Taxifolin]
- remaining activity at 1.25 µM ([1]; Well no.=3825): 101%
- remaining activity at 3.75 µM ([2]; Well no.=3825): 101%

SMILES: COc1ccc(-c2nn3c(-c4ccccn4)nnc3s2)cc1OC [Cardionogen-2]
- remaining activity at 1.25 µM ([1]; Well no.=5937): 102%
- remaining activity at 3.75 µM ([2]; Well no.=5937): 99.4%

SMILES: O=P(O)(O)C(O)(Cn1ccnc1)P(=O)(O)O [Zoledronic acid]
- remaining activity at 1.25 µM ([1]; Well no.=1881): 100%
- remaining activity at 1.25 µM ([1]; Well no.=5578): 102%
- remaining activity at 3.75 µM ([2]; Well no.=1881): 97.1%
- remaining activity at 3.75 µM ([2]; Well no.=5578): 98.1%

SMILES: C[C@H]1CC[C@@H]2[C@@H](C)[C@H]3[C@H](C[C@H]4[C@@H]5CC[C@H]6C[C@@H](O)CC[C@]6(C)[C@H]5CC[C@]34C)N2C1 [Demissidine]
- remaining activity at 1.25 µM ([1]; Well no.=3202): 104%
- remaining activity at 3.75 µM ([2]; Well no.=3202): 107%

SMILES: CC1CNC(=O)NC1=O (centres unmarked) [Dihydrothymine]
- remaining activity at 1.25 µM ([1]; Well no.=8392): 100%
- remaining activity at 3.75 µM ([2]; Well no.=8392): 92.8%

SMILES: CC(C)CN(C)c1nc(N)c(C(=O)N=C(N)N)nc1Cl [5-(N-Methyl-N-isobutyl)amiloride]
- remaining activity at 1.25 µM ([1]; Well no.=209): 99.9%
- remaining activity at 3.75 µM ([2]; Well no.=209): 100%

SMILES: O=C(CCCN1CCC2(CC1)C(=O)NCN2c1ccccc1)c1ccc(F)cc1 [Spiperone hydrochloride]
- remaining activity at 1.25 µM ([1]; Well no.=1268): 105%
- remaining activity at 3.75 µM ([2]; Well no.=1268): 105%

SMILES: CCC(=O)O[C@]1(C(=O)CCl)[C@@H](C)C[C@H]2[C@@H]3C[C@H](F)C4=CC(=O)C=C[C@]4(C)[C@@]3(F)[C@@H](O)C[C@@]21C [Halobetasol Propionate]
- remaining activity at 1.25 µM ([1]; Well no.=8250): 94.9%
- remaining activity at 3.75 µM ([2]; Well no.=8250): 91.1%

SMILES: COc1ccc(CC[C@@H](OC(=O)[C@@H]2CCCCN2C(=O)[C@H](c2cc(OC)c(OC)c(OC)c2)C2CCCCC2)c2cccc(OCCN3CCOCC3)c2)cc1OC [SAFit2]
- remaining activity at 1.25 µM ([1]; Well no.=7064): 96.3%
- remaining activity at 3.75 µM ([2]; Well no.=7064): 92.2%

Reference: publication PMC8286840, “Identifying SARS-CoV-2 antiviral compounds by screening for small molecule inhibitors of Nsp3 papain-like protease” (Biochemical Journal, 2021)
